Laboratory results reported in patent publication US12600701B2, “N-acylhydrazonic compounds, use in the treatment of amyloid and non-amyloid degenerative aggregopathies, and pharmaceutical composition” (FACULDADES CATÓLICAS, priority 2020, dated 2026).

What was measured:
[1] = system: SynT-Sph1 aggregation in H4 cells; experiment: Cellular model of α-synuclein (SynT-Sph1) aggregation in H4 cells; type: cell-based, human
Description: The isoniazid-derived hydrazone of formula (IV) was evaluated in greater detail in a cellular model of α-synuclein aggregation in H4 cells. This model consists of the co-transfection of an α-synuclein construct containing the first 83 amino acids of the EGFP protein linked to its C-terminal portion (SynT) with the synphilin-1 protein (Sph1), resulting in positive inclusions for α-Syn which can be observed by fluorescence microscopy after immunostaining.

[2] = Stability in aqueous solution containing 1% DMSO (UV-Vis absorption); type: physicochemical; conditions: 1% DMSO/water, 5×10^−5 mol L^−1, 17° C., over 4 days
Description: Stability in aqueous solution containing 1% DMSO: Compounds were prepared at low concentrations (5×10^−5 mol L^−1) in a solution containing 1% DMSO in ultra-pure water. Absorption spectra were obtained between 200 and 800 nm in a molecular absorption spectrophotometer at regular intervals over 12 hours. A final measurement was performed after four days. The room temperature was maintained at 17° C. throughout the experiment.

[3] = Experimental octanol-water partition coefficient (log P); type: physicochemical; conditions: octanol / Tris buffer 10^−2 mol L^−1 pH 7.4, 37° C., triplicate
Description: Tris buffer 10^−2 mol L^−1 pH 7.4 was used as the aqueous phase. Both phases were prepared separately, and contained the hydrazone of interest at low concentrations (5×10^−5 mol L^−1). An ultraviolet/visible molecular absorption spectrum was acquired for each of the phases before mixing. The mixture was stirred at 37° C., protected from light. At the end of the incubation, the mixture was centrifuged for 10 minutes at 3000 rpm, and the layers were separated using pipettes. The concentrations in each phase were measured at the wavelength of greatest absorption of each hydrazone in the respective solvent, through calibration curves. Each compound was analyzed in triplicate and P was calculated as the average concentration ratio Co/Ca where Co is the concentration in the organic phase and Ca in the aqueous phase.
Experimental results were obtained using buffer with physiological pH, and the mixing and separation steps were performed at average human body temperature. This gives the experiment greater biological relevance compared to computational calculations. Even so, the values determined are in agreement with those calculated.

[4] = Affinity constant for copper(II), Method of Continuous Variations (Job plot); type: binding
Description: Affinity constant for copper(II): The affinity constant of compound (IV) for copper(II) was determined using the Method of Continuous Variations, which consists of preparing mixtures of different molar fractions of ligand and metal, followed by measuring their UV-Vis absorbance.
From this information it is possible to calculate the complex formation constant which, for the compound of formula (IV), has a value of 5.66±0.08 at 25° C.

healthy rats = conditions: earlier work of the group; cited from earlier work
[5] = system: mice with intracerebroventricular infusion of Aβ oligomers; conditions: earlier work of the group, cited from earlier work
[6] = rats, intraperitoneal injection, HPLC detection in brain; earlier work of the group; cited from earlier work

| SMILES | levels of α-Syn expression [1] | morphology of the aggregates ([1]; after treatment) | decrease in the intensity of the hydrazonic band [2] | logP [3] | complex formation constant with copper(II) ([4]; ML-type complex (1:1), 25° C.) | formation constant compared with clioquinol ([4]; clioquinol under similar conditions) | acute toxicity (healthy rats) | defensive responses related to fear and anxiety ([5]; healthy mice) | short- and long-term memory damage induced by Aβ oligomers ([5]; mice, intracerebroventricular infusion of Aβ oligomers) | crossing of the blood-brain barrier [6] |
| --- | --- | --- | --- | --- | --- | --- | --- | --- | --- | --- |
| Cn1ccnc1/C=N/NC(=O)c1ccncc1 [(IV), 1-methyl-1H-imidazole-2-carboxaldehyde isonicotinoyl hydrazone] | does not change | less compact after treatment | less than 2% | 0.67 ± 0.03 | 5.66±0.08 | approximately one thousand times lower |  |  |  |  |
| O=C(NN=Cc1ccc2cccc(O)c2n1)c1ccncc1 [INHHQ, 8-hydroxyquinoline-2-carboxaldehyde isonicotinoyl hydrazone] |  |  | approximately 12% |  |  |  | non-toxic | does not alter | capable of preventing | capable of crossing the blood-brain barrier |
| Cn1ccnc1/C=N/NC(=O)c1ccccc1 [(V), 1-methyl-1H-imidazole-2-carboxaldehyde benzoyl hydrazone] |  |  |  | 1.49 ± 0.13 |  |  |  |  |  |  |
